# Experimental data as given in patent publication US8501908B2, “Immunogenic peptides” (priority 2008, dated 2013).
# Experiments:
# Type in all cases: cell-based, human
# [1] = test system: PBMCs from DLBCL patients; test: γ-IFN release ELISPOT, PBMCs of DLBCL patients after short-term culture with peptides; parameters: γ-IFN response to peptides: unit not given here; details: for γ-IFN response to peptides: triplicate ELISPOT; for order of immunogenicity for eliciting CTLs: order PASD1(1), PASD1(2), PASD1(5), PASD1(3), PASD1(4)
# [2] = test system: Thiel (myeloma) cell line; test: 51Cr release cytolytic assay of peptide-specific CTL/TH cell lines; details: for lysis by CTL lines raised against the peptide: HLA-A*0201-positive PASD1-positive Thiel, 4 h 51Cr release, four patients
# Procedure: (§1) A conventional ^51Cr-labelling release assay was used to investigate the ability of CTL and TH cell lines generated from DLBCL patients to lyse PASD1-positive tumour target cells. The target cell lines, consisting of the OCI-Ly3, SUDHL-6, KM-H2 and Thiel, were radiolabelled with 100 μCi ^51Cr for 90 minutes. […] The incubation period of the TH with the target cells was increased to 18 hours. Maximum ^51Cr release was determined following the addition of 10% Triton-X to the radiolabelled target cells and spontaneous release was assessed by adding RPMI1640/FCS to the target cells. The supernatant was harvested and counted in a gamma-counter (Beckmann, Heidelberg, Germany).
# [3] = test system: OCI-Ly3 (DLBCL) cell line; test: as above; details: for lysis by CTL lines raised against the peptide: PASD1-positive HLA-A*0201-negative OCI-Ly3, 4 h 51Cr release
# Procedure: as §1
# [4] = test system: SUDHL-6 (DLBCL) cell line; test: as above; details: PASD1-negative SUDHL-6; for lysis by CTL lines raised against the peptide: 4 h 51Cr release
# Procedure: as §1
# [5] = test system: PBMCs from healthy donors; test: γ-IFN release ELISPOT, PBMCs of healthy donors after short-term culture with peptides; details: triplicate ELISPOT, ± SD
# [6] = test system: KM-H2 (HL) cell line; test: 51Cr release cytolytic assay of peptide-specific CTL cell lines; details: HLA-A*0201-negative PASD1-positive KM-H2; 4 h 51Cr release
# Procedure: as §1
# [7] = PBMCs from a DLBCL patient stimulated in culture with PASD1(6) or PASD1(7) peptides, +/− SD
sequence,measurement,setting,value
DYFNQVTLQLLDGFMITLST (listed as Homo sapiens) [PASD1(6)],TH γ-IFN response to peptides at time of diagnosis and after one year,"[1]; DLBCL patients (FIG. 5), short term culture, p<0.05",significant
same,γ-IFN response to peptides,[1]; [7],32 +/− 2
same,γ-IFN response to peptides,"[1]; Patient 1, De novo DLBCL, DRB1-0102, group Significant response, ± SD",52 ± 6
same,γ-IFN response to peptides,"[1]; Patient 2, De novo DLBCL, DRB1-0101, group Significant response, ± SD",32 ± 4
same,γ-IFN response to peptides,"[1]; Patient 3, De novo DLBCL, DRB1-0301, group Significant response, ± SD",34 ± 4
same,γ-IFN response to peptides,"[1]; Patient 4, De novo DLBCL, DRB1-0102, group Significant response, ± SD",58 ± 8
same,γ-IFN response to peptides,"[1]; Patient 8, De novo DLBCL, DRB1-1501, group Significant response, ± SD",36 ± 6
same,γ-IFN response to peptides,"[1]; Patient 9, De novo DLBCL, DRB1-0301, group Significant response, ± SD",22 ± 6
same,γ-IFN response to peptides,"[1]; Patient 10, De novo DLBCL, DRB1-0101, group No significant response, ± SD",30 ± 8
same,γ-IFN response to peptides,"[1]; Patient 12, De novo DLBCL, DRB1-0401, group Significant response, ± SD",44 ± 6
same,γ-IFN response to peptides,"[1]; Patient 15, De novo DLBCL, DRB1-1301, group No significant response, ± SD",28 ± 4
same,γ-IFN response to peptides,"[1]; Patient 17, De novo DLBCL, DRB1-0301, group No significant response, ± SD",20 ± 2
same,γ-IFN response to peptides,"[1]; Patient 18, De novo DLBCL, DRB1-0401, group No significant response, ± SD",14 ± 2
same,γ-IFN response to peptides,"[1]; Patient 19, De novo DLBCL, DRB1-1104, group No significant response, ± SD",22 ± 2
same,γ-IFN response to peptides,"[1]; Patient 20, De novo DLBCL, DRB1-1303, group No significant response, ± SD",10 ± 2
same,γ-IFN response to peptides,"[1]; Patient 21, De novo DLBCL, DRB1-0301, group No significant response, ± SD",18 ± 2
same,γ-IFN response to peptides,"[1]; Patient 24, De novo DLBCL, DRB1-1301, group Significant response, ± SD",22 ± 4
same,γ-IFN response to peptides,"[1]; Patient 28, Trans DLBCL, DRB1-0701, group No significant response, ± SD",28 ± 4
same,γ-IFN response to peptides,"[1]; Patient 37, Trans DLBCL, DRB1-0103, group Significant response, ± SD",38 ± 4
same,γ-IFN response to peptides,"[1]; Patient 48, T-cell rich DLBCL, DRB1-0301, group Significant response, ± SD",48 ± 4
same,γ-IFN response to peptides,"[1]; Patient 61, De novo DLBCL, DRB1-0401, group No significant response, ± SD",22 ± 2
same,immunogenicity among patients studied,"[1]; TH γ-IFN response, DLBCL patients",immunogenic in the majority of patients
same,γ-IFN response to the PASD1(1) CTL peptide elicited by culture with the peptide,"[1]; cells cultured 8-10 days with PASD1(6) or PASD1(7), Table 4",comparable
same,order of immunogenicity for eliciting TH cell responses,"[1]; from γ-IFN release assay, order PASD1(6), PASD1(7), PASD1(10), PASD1(9), PASD1(8)",most immunogenic
same,lysis by TH cell lines specific for the peptide,"[2]; PASD1-positive Thiel, 18 h 51Cr release",Significant dose dependent lysis
same,lysis by TH cell lines specific for the peptide,"[3]; PASD1-positive OCI-Ly3, 18 h 51Cr release",Significant dose dependent lysis
same,lysis by TH cell lines specific for the peptide,[4]; 18 h 51Cr release,no significant lysis
same,γ-IFN response to peptides,"[5]; Healthy donor HD 1, DRB1-0102",14 ± 2
same,γ-IFN response to peptides,"[5]; Healthy donor HD 2, DRB1-0401",10 ± 2
same,γ-IFN response to peptides,"[5]; Healthy donor HD 3, DRB1-0401",5 ± 2
same,γ-IFN response to peptides,"[5]; Healthy donor HD 4, DRB1-0301",14 ± 2
same,γ-IFN response to peptides,"[5]; Healthy donor HD 5, DRB1-0301",24 ± 2
ELSDSLGPV (listed as Homo sapiens) [PASD1(5)],order of immunogenicity for eliciting CTLs,[1]; from γ-IFN release assay,more immunogenic
same,lysis by CTL lines raised against the peptide,[6],not
same,lysis by CTL lines raised against the peptide,[2],dose dependent lysis
same,lysis by CTL lines raised against the peptide,[3],not
same,lysis by CTL lines raised against the peptide,[4],not
QLLDGFMITL (listed as Homo sapiens) [PASD1(1)],γ-IFN response to peptides,[1]; [7],30 +/− 4
same,order of immunogenicity for eliciting CTLs,[1]; from γ-IFN release assay,most immunogenic
same,lysis by CTL lines raised against the peptide,[6],not
same,lysis by CTL lines raised against the peptide,[2],dose dependent lysis
same,cytolytic effect of peptide-stimulated cells,"[2]; effector:target ratio of 5:1, all four patients",significant
same,lysis by CTL lines raised against the peptide,[3],not
same,lysis by CTL lines raised against the peptide,[4],not
YLVGNVCIL (listed as Homo sapiens) [PASD1(2)],order of immunogenicity for eliciting CTLs,[1]; from γ-IFN release assay,more immunogenic
same,lysis by CTL lines raised against the peptide,[6],not
same,lysis by CTL lines raised against the peptide,[2],dose dependent lysis
same,lysis by CTL lines raised against the peptide,[3],not
same,lysis by CTL lines raised against the peptide,[4],not
